Results as given in patent US10407435B2, “Diheteroaryl histone deacetylase inhibitors and their use in therapy” (Karus Therapeutics Limited, priority 2014, dated 2019).

Assays:
HDAC1 = HDAC1 (Homo sapiens, UniProt Q13547); assay: Biochemical Selectivity: HDAC1 inhibition
Source text: (§1) Compounds of the invention may be tested for HDAC inhibitory activity by any suitable assay, e.g. the assay described in WO2008/062201.

HDAC6 = biological target: T1, HDAC6 (Homo sapiens, UniProt Q9UBN7); assay: Biochemical Selectivity: HDAC6 inhibition
T1 sequence (Q9UBN7 1-1215): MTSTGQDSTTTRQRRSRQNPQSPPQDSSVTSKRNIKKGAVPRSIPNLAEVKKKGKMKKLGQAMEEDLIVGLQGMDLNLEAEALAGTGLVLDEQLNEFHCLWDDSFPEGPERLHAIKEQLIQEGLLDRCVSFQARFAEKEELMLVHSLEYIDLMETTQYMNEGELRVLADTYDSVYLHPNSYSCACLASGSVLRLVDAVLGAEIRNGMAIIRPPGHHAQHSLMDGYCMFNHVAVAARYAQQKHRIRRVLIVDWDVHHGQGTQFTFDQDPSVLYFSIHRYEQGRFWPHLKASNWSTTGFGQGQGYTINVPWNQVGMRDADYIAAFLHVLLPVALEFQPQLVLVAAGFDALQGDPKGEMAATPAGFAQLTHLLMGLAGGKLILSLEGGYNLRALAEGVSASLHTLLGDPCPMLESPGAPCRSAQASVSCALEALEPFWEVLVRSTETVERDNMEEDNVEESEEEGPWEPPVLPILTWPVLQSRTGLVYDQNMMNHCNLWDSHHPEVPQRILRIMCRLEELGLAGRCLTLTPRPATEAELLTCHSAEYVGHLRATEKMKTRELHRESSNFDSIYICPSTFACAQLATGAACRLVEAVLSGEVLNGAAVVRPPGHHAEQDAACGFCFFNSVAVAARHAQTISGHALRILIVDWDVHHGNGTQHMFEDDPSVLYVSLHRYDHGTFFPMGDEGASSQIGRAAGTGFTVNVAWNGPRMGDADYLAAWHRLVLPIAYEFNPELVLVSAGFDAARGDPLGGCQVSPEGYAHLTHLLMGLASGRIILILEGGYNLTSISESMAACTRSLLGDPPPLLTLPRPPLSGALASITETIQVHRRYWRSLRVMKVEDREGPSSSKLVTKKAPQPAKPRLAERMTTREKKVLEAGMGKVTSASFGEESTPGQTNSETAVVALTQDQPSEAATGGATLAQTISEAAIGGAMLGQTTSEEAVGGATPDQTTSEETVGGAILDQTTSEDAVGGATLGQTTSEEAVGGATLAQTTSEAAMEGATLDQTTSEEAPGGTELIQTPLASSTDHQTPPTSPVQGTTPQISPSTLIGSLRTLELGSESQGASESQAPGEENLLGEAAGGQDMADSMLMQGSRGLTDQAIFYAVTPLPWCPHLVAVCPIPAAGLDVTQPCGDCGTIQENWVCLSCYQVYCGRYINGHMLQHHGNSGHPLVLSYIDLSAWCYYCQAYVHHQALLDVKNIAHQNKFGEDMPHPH
Source text: as §1

[1] = Plasma clearance following IV dosing, Balb/c mice (Example D protocol); format: in vivo; details: mouse, male Balb/c mice, 3 mg/kg i.v., 5% NMP, 5% solutol HS-15 in 90% HPβCD solution
Method: A group of eighteen male Balb/c mice were divided into two groups Group 1 (3 mg/kg; i.v.), Group 2 (10 mg/kg; p.o.) with each group comprising of nine mice. Animals in Group 1 were administered intravenously with Example D solution formulation in 5% NMP, 5% solutol HS-15 in 90% HPβCD solution (20% HPβCD in RO water) at 3 mg/kg dose while animals in Group 2 were administered orally with 10 mg/kg solution formulation of Example D in 5% NMP, 5% solutol HS-15 in 90% HPβCD solution (20% HPβCD in RO water). Blood samples (approximately 60 μL) were collected from retro orbital plexus under light isoflurane anesthesia such that the samples were obtained at pre-dose, 0.08, 0.25, 0.5, 1, 2, 4, 8 and 24 hr (i.v.) and pre-dose, 0.25, 0.5, 1, 2, 4, 6, 8 and 24 hr (p.o.). The blood samples were collected from set of three mice at each time point in labeled micro centrifuge tube containing K2EDTA as anticoagulant. Plasma samples were separated by centrifugation of whole blood and stored below −70° C. until bioanalysis. All samples were processed for analysis by protein precipitation using acetonitrile (ACN) and analyzed with fit for purpose LC/MS/MS method (LLOQ: 1.27 ng/mL). Pharmacokinetic parameters were calculated using the non-compartmental analysis tool of Phoenix WinNonlin (Version 6.3).

[2] = Plasma clearance following IV dosing, CD1 mouse (Example A of WO 2014/072714 protocol); format: in vivo; details: male CD1 mouse, 5 mg/kg I.V., 10% DMSO, 15% Cremophor, 75% Saline
Method: Formulation: Solutions in 10% DMSO, 15% Cremophor, 75% Saline
Dosing: 10 mg/kg P.O. and 5 mg/kg I.V.
Protocol: • n=3 male mice per time point per route; • Terminal blood sampling at 8 time points (5 min, 10 min, 0.5 hr, 1 hr, 3 hr, 6 hr, 8 hr and, 24 hr); • Collection of plasma, bio-analysis and report of AUC, AUMC, Vss, CL, half life, MRT and bioavailability.

[3] = Plasma clearance following IV dosing, CD1 mice (Example 3 of WO 2010/086646 protocol); format: in vivo; details: mouse, male CD1 mice, 5 mg/kg intravenously, 10% NMP/90% water
Method: Compound was administered both intravenously and orally to mice. Blood samples were collected at up to 7 time points over 8 hours and plasma was analysed by LC-MS/MS to determine the concentration of compound at each time point. The plasma time concentration profile was delivered along with the main calculated PK parameters (Co, Cmax, AUC-last, t1/2, tmax, Vd, and CL).
Three male CD1 mice, 25-30 g, were dosed per administration route per timepoint. Compound was administered both orally (10 mg compound per kg of body weight) and intravenously (5 mg compound per kg body weight). The excipient used was 10% NMP/90% water. Animals were given free access to food throughout the study.
At the following time points, the animals were anaesthetized, blood collected in heparinized tubes and animals were sacrificed:
Blood samples were centrifuged to obtain the plasma, which was transferred to a separate, labelled container. Aliquots from the individual time points for the three animals were analyzed singly. Protein was precipitated by adding three volumes of methanol and centrifuging for 30 min at 4° C. […] The plasma samples were quantified by LC-MS/MS and the concentration of compound in plasma was reported in μg/mL. Pharmacokinetic parameters were calculated employing non-compartmental model analysis.

HDAC1, sequence (Q13547 whole entry, species assumed): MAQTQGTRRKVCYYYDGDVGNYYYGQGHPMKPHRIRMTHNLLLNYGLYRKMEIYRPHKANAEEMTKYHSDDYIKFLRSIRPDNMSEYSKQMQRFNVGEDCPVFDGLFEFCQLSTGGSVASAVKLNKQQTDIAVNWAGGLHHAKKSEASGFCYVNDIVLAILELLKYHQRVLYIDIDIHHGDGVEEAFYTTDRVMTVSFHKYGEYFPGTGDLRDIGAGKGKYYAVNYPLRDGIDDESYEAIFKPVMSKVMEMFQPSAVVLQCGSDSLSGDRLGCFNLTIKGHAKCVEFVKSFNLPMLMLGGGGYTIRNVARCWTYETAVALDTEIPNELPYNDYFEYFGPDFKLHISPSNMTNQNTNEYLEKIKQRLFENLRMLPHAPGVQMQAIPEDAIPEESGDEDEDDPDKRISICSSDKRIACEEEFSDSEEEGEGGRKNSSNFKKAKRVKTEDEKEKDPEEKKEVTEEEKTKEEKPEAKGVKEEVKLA

Structure (SMILES) | IC50 (HDAC1) | IC50 (HDAC6) | clearance [1] | clearance [2] | clearance [3]
O=C(CCCCCCN(c1cnccn1)c1ccc(C(F)(F)F)nn1)NO [Example D, N-Hydroxy-7-[(pyrazin-2-yl)[6-(trifluoromethyl)pyridazin-3-yl]amino]heptanamide] | 100 to 1000 nM | ≤ 100 nM | 48.6 mL/min/kg | – | –
O=C(CCCCCCN(c1cnccn1)c1ccc2nccn2n1)NO [Example F, N-Hydroxy-7-({imidazo[1,2-b]pyridazin-6-yl}(pyrazin-2-yl)amino) heptanamide] | 100 to 1000 nM | ≤ 100 nM | – | – | –
O=C(CCCCCCN(c1cnccn1)c1ncnc2occc12)NO [Example J, 7-({Furo[2,3-d]pyrimidin-4-yl}(pyrazin-2-yl)amino)-N-hydroxyheptanamide] | > 1000 nM | ≤ 100 nM | – | – | –
Cc1nsc(N(CCCCCCC(=O)NO)c2ccnc(N3CCOCC3)n2)n1 [Example G, N-Hydroxy-7-[(3-methyl-1,2,4-thiadiazol-5-yl)[2-(morpholin-4-yl)pyrimidin-4-yl]amino]heptanamide] | 100 to 1000 nM | ≤ 100 nM | – | – | –
Cc1nsc(N(CCCCCCC(=O)NO)c2ccccn2)n1 [Example A of WO 2014/072714] | – | – | – | 253 mL/min/kg | –
O=C(CCCCCCN(c1cnccn1)c1ccn2nccc2n1)NO [Example C, N-Hydroxy-7-[(pyrazin-2-yl)({pyrazolo[1,5-a]pyrimidin-5-yl})amino]heptanamide] | 100 to 1000 nM | ≤ 100 nM | – | – | –
O=C(CCCCCCN(c1cnccn1)c1cnccn1)NO [Example A, 7-[Bis(pyrazin-2-yl)amino]-N-hydroxyheptanamide] | > 1000 nM | ≤ 100 nM | – | – | –
COc1ccc(N(CCCCCCC(=O)NO)c2cnccn2)nn1 [Example E, N-Hydroxy-7-[(6-methoxypyridazin-3-yl)(pyrazin-2-yl)amino]heptanamide] | 100 to 1000 nM | ≤ 100 nM | – | – | –
O=C(CCCCCCN(c1ccccn1)c1ccccn1)NO [Example 3 of WO 2010/086646] | – | – | – | – | 374 mL/min/kg
CN(C)c1cc(N(CCCCCCC(=O)NO)c2cnccn2)ncn1 [Example I, 7-{[6-(Dimethylamino)pyrimidin-4-yl](pyrazin-2-yl)amino}-N-hydroxyheptanamide] | > 1000 nM | ≤ 100 nM | – | – | –
O=C(CCCCCCN(c1cnccn1)c1nccn2ncnc12)NO [Example B] | > 1000 nM | ≤ 100 nM | – | – | –
O=C(CCCCCCN(c1cnccn1)c1ncncc1F)NO [Example H, 7-[(5-Fluoropyrimidin-4-yl)(pyrazin-2-yl)amino]-N-hydroxyheptanamide] | > 1000 nM | ≤ 100 nM | – | – | –

Now from value to compound:

IC50 (HDAC1) | IC50 (HDAC6) | clearance [1] | clearance [2] | clearance [3] | Structure (SMILES)
100 to 1000 nM | ≤ 100 nM | – | – | – | Cc1cc(C(=O)N(C)C)nc(N(CCCCCCC(=O)NO)c2nc(C)ns2)n1 [Example L, 2-{[6-(hydroxycarbamoyl)hexyl](3-methyl-1,2,4-thiadiazol-5-yl)amino}-N,N,6-trimethylpyrimidine-4-carboxamide]
100 to 1000 nM | ≤ 100 nM | – | – | – | CN(C)c1ccc(N(CCCCCCC(=O)NO)c2cnccn2)nn1 [Example O, 7-{[6-(dimethylamino)pyridazin-3-yl](pyrazin-2-yl)amino}-N-hydroxyheptanamide]
100 to 1000 nM | ≤ 100 nM | – | – | – | CN(C)c1cnc(N(CCCCCCC(=O)NO)c2cnccn2)cn1 [Example Q, 7-{[5-(dimethylamino)pyrazin-2-yl](pyrazin-2-yl)amino}-N-hydroxyheptanamide]
> 1000 nM | ≤ 100 nM | – | – | – | Cc1noc(N(CCCCCCC(=O)NO)c2cncc(N3CCOCC3)n2)n1 [Example S, N-hydroxy-7-[(3-methyl-1,2,4-oxadiazol-5-yl)[6-(morpholin-4-yl)pyrazin-2-yl]amino]heptanamide]
100 to 1000 nM | 100 to 1000 nM | – | – | – | O=C(CCCCCCN(c1ccncn1)c1cnccn1)NO [Example K, N-Hydroxy-7-[(pyrazin-2-yl)(pyrimidin-4-yl)amino]heptanamide]
> 1000 nM | ≤ 100 nM | – | – | – | Cn1ccc2ncnc(N(CCCCCCC(=O)NO)c3cnccn3)c21 [Example N, N-hydroxy-7-({5-methyl-5H-pyrrolo[3,2-d]pyrimidin-4-yl}(pyrazin-2-yl)amino) heptanamide]
> 1000 nM | ≤ 100 nM | – | – | – | O=C(CCCCCCN(c1cncnc1)c1cnccn1)NO [Example R, N-hydroxy-7-[(pyrazin-2-yl)(pyrimidin-5-yl)amino]heptanamide]
> 1000 nM | ≤ 100 nM | – | – | – | COCc1cc(N(CCCCCCC(=O)NO)c2nc(C)ns2)ncn1 [Example M, N-hydroxy-7-{[6-(methoxymethyl)pyrimidin-4-yl](3-methyl-1,2,4-thiadiazol-5-yl)amino}heptanamide]
> 1000 nM | ≤ 100 nM | – | – | – | Cn1ncc2ncnc(N(CCCCCCC(=O)NO)c3cnccn3)c21 [Example P, N-hydroxy-7-({1-methyl-1H-pyrazolo[4,3-d]pyrimidin-7-yl}(pyrazin-2-yl)amino)heptanamide]
